Ends that are not written are not given here.
Assays:
[1] = tested on: FOXP3:NFAT1; test: IL-2 promoter ARRE2 luciferase reporter, FOXP3 repression of NFAT1:AP1 transcription; format: cell-based, human; conditions: HEK cells
Method: FIG. 2A-E. Design, biochemical characterization, and functional testing of SAH-FOXP3NFATs. (A) Design strategy for SAHs targeting the FOXP3:NFAT1 dimerization interface. (B) CD showing that i(i+4) and i(i+7) stapled SAH-FOXP3NFATs and their point mutant controls are helical in solution. […] (C&D) Dose dependent inhibition of FOXP3-mediated NFAT repression with 2.5 ng (D) and 10 ng (E) FOXP3 DNA. Point mutant controls have no effect thus confirming specificity of action.
Experiments were conducted during development of embodiments herein to design stabilized α-helices of the FOXP3:NFAT1 interface (SAH-FOXP3NFAT). Using a similar approach as above, stapled peptides based on a FOXP3 α-helix, which is responsible for NFAT1 binding (FIG. 2A), were designed. Non-natural amino acids were inserted in either the i,i+4 (SAHFOXP3NFAT(i,i+4)) or i,i+7(SAHFOXP3NFAT(i,i+7)) positions. Hydrocarbon stapling of the FOXP3NFAT peptides and point mutants similarly stabilizes their helicity (FIG. 2B). The peptides were tested for inhibition of FOXP3:NFAT1 binding. Co-expression of increasing amounts of FOXP3 DNA with constitutively active NFAT1 dose dependently represses NFAT1: AP1 transcriptional activity at an IL-2 promoter ARRE2 luciferase reporter element in transfected human embryonic kidney (HEK) cells (FIG. 2C). […] Confirming specificity of action, neither point mutant control SAH had any effect (FIG. 2E). […] Possibilities include differences in cellular penetrance, binding efficiency, or intracellular trafficking between the two SAHs.

[2] = molecular target: T1, recombinant LZCC protein (dimerized FOXP3) (Mus musculus, UniProt Q99JB6); test: Chemical crosslinking (BS3 or DSS) of recombinant LZCC with SAH-FOXP3 peptides; format: biochemical; conditions: 2 hours room temperature, 1 mM BS3 or DSS
T1 construct: the LZCC portion of FOXP3 (FOXP3 S189-K276); made in house
T1 sequence (Q99JB6 189-276): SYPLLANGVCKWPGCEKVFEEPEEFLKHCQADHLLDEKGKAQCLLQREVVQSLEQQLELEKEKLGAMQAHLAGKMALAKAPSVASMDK
Method: FIG. 8A-B. Chemical Crosslinking. SAH-FOXP3 peptides incubated with recombinant LZCC protein for 2 hours at room temperature in 1×PBS. 1 mM of the chemical crosslinker BS3 or DSS was added to each tube for 30 mins at room temperature. Samples were denatured and then separated by electrophoresis on a NuPage SDS 10/a Bis-Tris gel following the manufacturer's protocol (Invitrogen). Protein was imaged after staining the gel with coomassie on the Odyssey Imager. […] In some cases, SAH peptide crosslinks with monomeric FOXP3 alone

[3] = tested on: regulatory T cells (Tregs); test: In vitro Treg suppression assay (Tcon proliferation, flow cytometry); format: cell-based, mouse (C57BL/6 FOXP3IRES-GFP)
[4] = tested on: Tregs; test: Quantitative PCR of mRNA in treated Tregs; format: cell-based, mouse (C57BL/6 FOXP3IRES-GFP); conditions: naïve Tregs with IL-2 and CD3/CD28 microbeads
Method: (§1) FIG. 12A-B. SAH-FOXP3DD peptides are able to alter cellular expression (protein and mRNA) of FOXP3 target genes. Conventional T cells (CD4+ CD25−) and regulatory T cells (CD25+ GFP+) were isolated from CD4+ cells enriched from spleen and draining lymph nodes of FOXP3-IRES-GFP. Tregs were treated at 1000 cells per μL with peptides in OptiMem for 2 hours before being quenched with completed advanced DMEM and then stimulated with CD3/CD28 beads. Gene expression was determined using qRT-PCR 4 hours after stimulation. Membrane (live cell) or internal (fixed cell) expression of proteins was determined using flow cytometry 16 hrs after stimulation.
(§2) Tregs and Tcons were stimulated from C57BL/6 FOXP3IRES-GFP with IL-2 and CD3/CD28 microbeads for seven days and treated them with a dose titration of SAH-FOXP3DD10, or unstapled control, and measured membrane expression of CD127 (IL7Ra). Tregs and Tcons normally downregulate CD127 mRNA expression following seven days of stimulation.

[5] = tested on: Tregs; test: Flow cytometry of protein expression in treated Tregs; format: cell-based, mouse (C57BL/6 FOXP3IRES-GFP); conditions: dose titration
Method: as §1, §2

[6] = tested on: DNA probe; test: EMSA control, peptide alone with DNA probe (non-specific binding); conditions: 50 μM peptide
Method: FIG. 9A-C. Electrophoretic mobility shift assays (EMSA). (A) SAHs block FOXP3 binding to cognate DNA; a comparison of stapled and unstapled peptides. EMSA with FOXP3ΔN incubated with increasing concentrations of different SAH-FOXP3 are shown. Labeled probe containing consensus sequence (A′GT25) for FOXP3 was incubated at room temperature for 15 mins with recombinant FOXP3ΔN and increasing concentrations of SAH peptide [3 μM to 25 μM]. The last lane in each set is 25 μM of peptide alone with DNA probe. […] IRDye700 labeled probe containing consensus sequence for NFAT was incubated at room temperature for 15 mins with 100 pmole recombinant NFAT-DBD and peptide or DMSO using the Odyssey Infrared EMSA kit per manufacturer's protocol (Li-Cor). Reactions were then separated by electrophoresis on a 10% TBE gel and imaged using an Odyssey Imager (Li-Cor).
To exclude non-specific binding to the negatively charged DNA probe, a liability of using charged peptides in EMSAs, SAH-FOXP3DDs were incubated with each probe at up to twice the highest concentration used. […] Next, SAH-FOXP3DDs were incubated with recombinant NFAT (NFAT DBDW400-W680) and the Il-2 reporter oligonucleotide ARRE2 element as a further test of specificity. SAH-FOXP3DDs were unable to inhibit NFAT:DNA binding, further validating on-target specificity of the peptides.

[7] = molecular target: T2, recombinant FOXP3 leucine zipper coiled-coiled (LZCC) domain (Mus musculus, UniProt Q99JB6); test: Fluorescence polarization assay, FITC-peptide binding to LZCC; conditions: 50 nM FITC-peptide, 1×PBS pH 8
T2 construct: the LZCC portion of FOXP3 (FOXP3 S189-K276); made in house
T2 sequence (Q99JB6 189-276): T1 sequence (Q99JB6 189-276)
Method: FIG. 7A-D. Fluorescence polarization assay to determine SAH-FOXP3 binding to recombinant FOXP3 leucine zipper coiled-coiled (LZCC) domain. (A) Serially diluted recombinant LZCC was incubated with 50 nM FITC-peptide in 1×PBS pH 8 for 5-10 mins and then fluorescent polarization was measured using a SpectraMax spectrometer. […] (B—C) Serially diluted recombinant LZCC (A) or FOXP3 ΔN (B) was incubated with 50 nM FITC-peptide in 1×PBS pH 8 for 5-10 mins followed by fluorescent polarization measurement using a SpectraMax spectrometer. (D) Shift of composite binding curves indicate increased affinity for the leucine zipper coiled-coiled (LZCC) domain and FOXP3ΔN.
A library of hydrocarbon stapled peptides were synthesized representing these templates (SAH-FOXP3DDs) that incorporated three different hydrocarbon staple positions along the solvent-exposed face so as to avoid disruption of critical contact points between ‘a’ and ‘d’ residues of the coiled-coil. Non-natural amino acids were inserted at positions i,i+7 so that the hydrocarbon staples face away from the dimerization interface (FIG. 1A). […] Both native and stapled FOXP3DD peptides were α-helical in solution at a wide range of temperatures (20-50° C.) (FIG. 1B). To achieve solubility of the unstapled constructs for CD evaluation, 20% acetonitrile:water solution was used. […]

[8] = tested on: FOXP3-DNA binding; test: EMSA with FOXP3 reticulocyte lysate (IVTT) and IRDye700 DNA probe, unstapled peptides; format: biochemical; conditions: peptides 50-200 μM, A′A1A2 probe
Method: FIG. 5A-C. Unstapled FOXP3 peptides are able to alter FOXP3-DNA binding at high concentrations. Preparation of FOXP3 proteins through In Vitro Transcription and Translation (IVTT) reticulocyte lysate: T7 DNA vectors (1 μg/25 μL) were incubated at 30° C. for 1.5 hr in reticulocyte lysate with T7 polymerase, amino acids and RNAsin per the manufacturer's protocol (TnT Coupled Reticulocyte Lysate System, Promega). IRDye700 labeled probe containing consensus sequence (A′A1A2; a DNA sequence previously published to bind FOXP3) for FOXP3 was incubated at room temperature for 15 mins with 2 μL FOXP3 reticulocyte lysate, in the presence of peptides (50-200 μM) using the Odyssey Infrared EMSA kit per manufacturer's protocol (Li-Cor). Reactions were then separated by electrophoresis on a 10% TBE gel and imaged using an Odyssey Imager (Li-Cor).

With “QRTXNEIXHWFTRNFAFF [SAH-FOXP3NFAT(i,i+4), β-Ala/Ac; i,i+4 stapled FOXP3/NFAT peptide]” the “inhibition of FOXP3-mediated repression of NFAT1:AP1 luciferase activity” value (“inhibition … of NFAT1:AP1 luciferase activity” for short) ([1]; 2.5 ng FOXP3 DNA (low dose)) was “inhibited this FOXP3-mediated repression”, the “inhibition … of NFAT1:AP1 luciferase activity” value ([1]; 2.5 ng FOXP3 DNA (low dose), listed as FOXP3NFAT(i,i+4)) was “fully inhibited” and the “inhibition … of NFAT1:AP1 luciferase activity” value ([1]; 10 ng FOXP3 DNA (excess)) was “inhibited this FOXP3-mediated repression”. For the same substance, the “inhibition … of NFAT1:AP1 luciferase activity” value ([1]; 10 ng FOXP3 DNA (excess), listed as FOXP3NFAT(i,i+4)) was “less able to inhibit”.

With “LLDEKGRAQCL8QREMVQXLEQQLVLEKEK [SAH9, Ac-/-Am; hFOXP3 (223-252); staple (L234, S241)B]” the “amount of dimerized FOXP3 protein after crosslinking” value [2] was “modest decrease”.

“RAQCLLQREMVQSLE8QLVLEKXKLSAMQAH [SAH-FOXP3DD10, Ac-/-Am; hFOXP3 (229-259); staple (Q244, E251)C]” was tested, and the “degree of Treg inhibition” value ([3]; in vitro expanded Tregs) was “lower, but still present”, the “ability of treated Tregs to inhibit Tcon proliferation” value ([3]; naïve Tregs pretreated for 2 hours) was “unable to inhibit the proliferation” and the “FOXP3 mRNA expression” value [4] was “correlative increase”. For the same substance, the “IL-2 mRNA expression” value [4] was “correlative increase”, the “expression of CD44” value ([5]; Tregs stimulated seven days) was “dose dependent decrease” and the “expression of CD69” value ([5]; Tregs stimulated seven days) was “dose dependent decrease”. The “membrane expression of CD127 (IL7Ra)” value ([5]; Tregs stimulated with IL-2 and CD3/CD28 microbeads for seven days) was “dose dependent increase” and the “binding of peptide to DNA probe” value [6] was “minimal binding”.

For “SGSRAQCLLQREMVQSLEQQLVLEKEK (Ac-SGSRAQCLLQREMVQSLEQQLVLEKEK-NH2) [B2V2, Ac-/-Am; SGS hFOXP3 (229-252); unstapled native peptide]”, the “binding to recombinant LZCC, in words” value [7] was “much lower affinity”.

With “LLDEKGRAQCLLQREMVQSLEQQLVLEKEK (LLDEKGRAQCLLQREMVQSLEQQLVLEKEK-NH2) [223-252, free N-term/-Am; hFOXP3 (223-252); unstapled; B4 has the same range]” the “dissociation of FOXP3 from DNA (EMSA)” value [8] was “dissociate FOXP3 from DNA”.

With “SGSGSRAQCLLQREMVQSLEQQLVLEKEK (Ac-SGSGSRAQCLLQREMVQSLEQQLVLEKEK-NH2) [B2V3, Ac-/-Am; SGSGS hFOXP3 (229-252); unstapled native peptide]” the “binding to recombinant LZCC, in words” value [7] was “much lower affinity”.

“QRTXNEIYHWXTRNFAFF [SAH-FOXP3NFAT(i,i+7), β-Ala/Ac; i,i+7 stapled FOXP3/NFAT peptide]” was tested, and the “inhibition … of NFAT1:AP1 luciferase activity” value ([1]; 2.5 ng FOXP3 DNA (low dose)) was “inhibited this FOXP3-mediated repression”, the “inhibition … of NFAT1:AP1 luciferase activity” value ([1]; 2.5 ng FOXP3 DNA (low dose), listed as FOXP3NFAT(I,i+7)) was “dose-responsively inhibited” and the “inhibition … of NFAT1:AP1 luciferase activity” value ([1]; 10 ng FOXP3 DNA (excess)) was “inhibited this FOXP3-mediated repression”. The “inhibition … of NFAT1:AP1 luciferase activity” value ([1]; 10 ng FOXP3 DNA (excess), listed as FOXP3NFAT(I,i+7)) was “dose-responsively inhibited”.

For “RAQCLLQREMVQSLEQQLVLEKEKLSAMQAH (Ac-RAQCLLQREMVQSLEQQLVLEKEKLSAMQAH-NH2) [229-259, Ac-/-Am; hFOXP3 (229-259); unstapled]”, the “dissociation of FOXP3 from DNA (EMSA)” value [8] was “dissociate FOXP3 from DNA”.

“KGRAQCLLQREMVQSLE8QLVLEKXKLSAMQAH [SAH-FOXP3DD4, Ac-/-Am; hFOXP3 (227-259); staple (Q244, E251)C]” was tested, and the “binding of peptide to DNA probe” value [6] was “minimal binding”.

“HLLDEKGRAQCLLQREMVQSLE8QLVLEKXKLSAMQAHLAG [SAH3, Ac-/-Am; hFOXP3 (222-262); staple (Q244, E251)C]” was tested, and the “binding of peptide to DNA probe” value [6] was “minimal binding”.

For “F8KHCQADXLLDEKGRAQCLLQREMVQSLEQQLVLEKEKL [SAH7, Ac-/-Am; hFOXP3 (214-253); staple (1215, H222)Z]”, the “amount of dimerized FOXP3 protein after crosslinking” value [2] was “modest decrease”.

From US12344643B2, “Compositions and methods for inhibition of FOXP3” (The University of Chicago, priority 2016, dated 2025)
